This is an account of results in article PMC9611727, “Optimization of a Novel Mandelamide-Derived Pyrrolopyrimidine Series of PERK Inhibitors” (Pharmaceutics, 2022).

The structures appear in SMILES notation. Where only a bound is given, the exact number is not on record here.

Data set [1] is described as follows: PK of 26 in plasma and pancreas of BALB/c nude mice. In kind it is in vivo, mouse. Particulars: 0.3 to 30 mg/kg single oral gavage. The procedure: (§1) For PK analysis of pyrrolopyrimidine analogs in mouse, rat, and dog plasma, the oral formulation was prepared as a solution containing 20% (w/v) Captisol in 25 mM NaH2PO4 buffer (pH 2). Compounds were administered orally by gavage at 10 mg/kg to female CD1 mice. After dosing, plasma samples were collected to characterize the PK profiles at 0.25, 0.5, 1, 2, 4, 8, 12 and 24 h post-dose. The plasma concentration of compound was determined by protein precipitation with acetonitrile and liquid chromatography with mass spectrometric detection (LC-MS/MS). Parameters were estimated using Phoenix (WinNonlin) pharmacokinetic software version 6.1.0 using a non-compartmental approach consistent with the oral route of administration. PK analysis of 26 in plasma and pancreas followed a similar analytical method as above, with minor modifications. Compound 26 was suspended in a vehicle consisting of 0.5% methylcellulose (400 cP) and 0.1% Tween80 in water and administered to BALB/c nude mice by oral gavage at 0.3, 1, 3, 10, 30 mg/kg. Plasma and pancreas were sampled from 5 mice per group following a single oral administration at 1, 4, 8, 12, 24 h post-dose.

In the next data set the test system is p-STAT5. Kind of data set: FLT3-ITD downstream signaling, p-STAT5 western blot in MV4-11 cells. Type of data set: cell-based. The conditions noted are these: Homo sapiens, normalized to Crenolanib, read-out: pSTAT5 IC50. How it is done: MV-4-11 and EoL-1 were plated at a density 20,000 cells/well in a 96 well plate. Cells were incubated with DMSO, 1 µM docetaxel, or an 8-pt, 2-fold dose response of 26 in quadruplicate. On day 3 and day 7, cells from DMSO-treated wells were counted and cells from all wells were split back so that the DMSO-treated wells matched the original seeding density. Cells were centrifuged in 96 well filter plates (Sigma) and resuspended in fresh compound-containing media.
On day 10, cells were incubated with alamarBlue™ HS Cell Viability Reagent (Invitogen) (10 µL of alamarBlue in a well of 90 µL media) for 2 hours at 37C/5% CO2. Fluorescence was measured on the EnVision Plate reader (Perkin Elmer) at an ex/em of 560/590 nm. Raw fluorescence values were normalized to positive and negative controls (DMSO, 1 µM docetaxel) to get a % viability. Replicates were averaged and dose responses were plotted on a 4 Parameter Logistic […]
MV-4-11 cells were plated in 6 well plates overnight in reduced serum media (IMDM + 0.5% FBS). The following day, compound or vehicle were added to the plate for a final DMSO concentration of 0.1% and incubated at 37 C for 2 hours.
Cells were washed with 1X PBS (Gibco 10010-023), and lysed in RIPA buffer with added inhibitors. Protein concentration was determined using a BCA assay (Thermo Scientific 23225). […]

The test system of a further data set is Kasumi-1 (FLT3wt). Kind of data set: Cell viability assay, Kasumi-1. In kind it is cell-based. Particulars: Homo sapiens.
Another data set deals with T1, HRI (Homo sapiens, UniProt Q9BQI3).
T1 construct: purchased Carna 05-154
T1 sequence (Q9BQI3 whole entry): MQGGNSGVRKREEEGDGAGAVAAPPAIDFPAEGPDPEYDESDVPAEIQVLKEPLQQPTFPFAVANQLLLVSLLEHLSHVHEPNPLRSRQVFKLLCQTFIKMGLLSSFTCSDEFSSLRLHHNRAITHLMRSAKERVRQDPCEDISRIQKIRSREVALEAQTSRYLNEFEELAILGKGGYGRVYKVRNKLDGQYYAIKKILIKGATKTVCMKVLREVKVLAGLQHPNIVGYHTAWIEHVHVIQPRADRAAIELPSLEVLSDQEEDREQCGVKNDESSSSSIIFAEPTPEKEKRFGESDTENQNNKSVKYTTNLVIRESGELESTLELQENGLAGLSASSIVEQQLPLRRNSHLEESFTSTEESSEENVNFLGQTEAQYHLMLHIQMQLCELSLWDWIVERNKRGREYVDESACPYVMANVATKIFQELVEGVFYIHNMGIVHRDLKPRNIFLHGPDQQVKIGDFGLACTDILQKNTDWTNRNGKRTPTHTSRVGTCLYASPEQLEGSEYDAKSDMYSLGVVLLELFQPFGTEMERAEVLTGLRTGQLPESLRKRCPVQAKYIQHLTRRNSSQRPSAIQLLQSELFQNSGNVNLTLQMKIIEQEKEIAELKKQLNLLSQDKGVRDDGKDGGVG
The data set can be described thus: ISR kinase cell-free biochemical assay (Carna), HRI. Particulars: ATP 30 µM. How it is done:
(§2) In brief, 26 was dissolved in DMSO and serially diluted 3-fold to generate concentrations ranging from 10 µM to 0.2 nM in a 384-well plate using a TECAN EVO200 automated liquid handler. 10 nL stock solution was transferred into each well of a 384well assay plate by an Echo550 and an equivalent volume of DMSO was added to the control wells. To each assay well, recombinant protein was suspended in 20 µL reaction buffer (listed below) and incubated at 25 °C for 1.5 h while shaking at 1250 rpm. Following incubation, 10 µL of a FRET dilution buffer including 20 mM EDTA and 4 nM Tb-anti-peIF2a [pSer51] (Invitrogen, Cat# PV4815) was added to each well and incubated at 25 °C for 2 h while shaking at 600 rpm in the dark. Analysis was performed using an Envision Microplate Reader (PerkinElmer).

A further data set addresses T2, PKR (Homo sapiens, UniProt P19525).
T2 construct: purchased Carna 05-156
Kind of data set: ISR kinase cell-free biochemical assay (Carna), PKR. Particulars: ATP 6 µM. The procedure: as §2

Another data set relates to phosphoPERK (T980). Kind of data set: PERK autophosphorylation (pPERK/PERK) in mouse pancreas after oral dosing. Type of data set: in vivo. Particulars: 30 mg/kg oral, 1 h. How it is done:
as §1
Total protein was extracted from pancreas tissues sampled during PK studies described above. […]

T2 sequence (P19525 whole entry): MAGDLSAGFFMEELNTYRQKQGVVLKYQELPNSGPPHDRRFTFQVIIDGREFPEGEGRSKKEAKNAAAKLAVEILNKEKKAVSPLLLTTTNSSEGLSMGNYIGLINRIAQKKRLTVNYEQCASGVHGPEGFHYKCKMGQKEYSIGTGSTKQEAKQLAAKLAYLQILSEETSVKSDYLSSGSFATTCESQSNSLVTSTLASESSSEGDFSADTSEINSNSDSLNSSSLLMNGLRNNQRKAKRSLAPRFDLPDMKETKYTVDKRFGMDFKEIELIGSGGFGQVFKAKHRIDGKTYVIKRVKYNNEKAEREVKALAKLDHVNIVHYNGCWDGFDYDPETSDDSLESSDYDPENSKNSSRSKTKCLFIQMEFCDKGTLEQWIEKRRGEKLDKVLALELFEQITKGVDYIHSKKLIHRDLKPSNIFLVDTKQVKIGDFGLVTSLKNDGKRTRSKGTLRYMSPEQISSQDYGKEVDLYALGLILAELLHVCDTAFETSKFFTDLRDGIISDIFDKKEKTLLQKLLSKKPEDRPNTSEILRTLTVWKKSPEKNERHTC

On to `Cc1nc(N)c2c(-c3ccc(NC(=O)[C@H](O)c4cccc(C(F)(F)F)c4)cc3C)cn(C)c2n1` [Compound 26], for which the “exposure in plasma and pancreas” value in data set [1] was “dose-proportionate exposure”. In addition, the IC50 with p-STAT5 was 0.064 µM; in the data set on Kasumi-1 (FLT3wt) it was above 10 µM; against HRI, above 10 µM; against PKR, above 10 µM. In the data set on phosphoPERK (T980), the “inhibition of pPERK/PERK in pancreas” value is listed as “approximately 80%”.
